Measured values reported in patent US7910600B2, “Therapeutic kinase modulators” (Cylene Pharmaceuticals, Inc., priority 2007, dated 2011).

Columns and labels:
[1] = system: HCT-116 human colorectal carcinoma cells; assay: Cell proliferation assay (Alamar Blue), HCT-116; type: cell-based; settings: HCT-116 cell line
Method: (§1) A representative cell-proliferation assay protocol using Alamar Blue dye (stored at 4° C., use 20 ul per well) is described hereafter.
(§2) 96-Well Plate Setup and Compound Treatment
(§3) • a. Split and trypsinize cells. • b. Count cells using hemocytometer. • c. Plate 4,000-5,000 cells per well in 100 μl of medium and seed into a 96-well plate according to the following plate layout. Add cell culture medium only to wells B10 to B12. Wells B1 to B9 have cells but no compound added.
(§4) • d. Add 100 μl of 2× drug dilution to each well in a concentration shown in the plate layout above. At the same time, add 100 μl of media into the control wells (wells B10 to B12). Total volume is 200 μl/well. • e. Incubate four (4) days at 37° C., 5% CO2 in a humidified incubator. • f. Add 20 μl Alamar Blue reagent to each well. • g. Incubate for four (4) hours at 37° C., 5% CO2 in a humidified incubator. • h. Record fluorescence at an excitation wavelength of 544 nm and emission wavelength of 590 nm using a microplate reader.
(§5) In the assays, cells are cultured with a test compound for approximately four days, the dye is then added to the cells and fluorescence of […] dye is detected after approximately four hours. Different types of cells can be utilized in the assays (e.g., HCT-116 human colorectal carcinoma cells, PC-3 human prostatic cancer cells and MiaPaca human pancreatic carcinoma cells).

MDA-MB231 = assay: Cell proliferation assay (Alamar Blue), MDA-MB231; type: cell-based; settings: Homo sapiens, MDA-MB-231; MDA-MB231 cell line
Method: as §1, §2, §3, §4, §5

PanC1 = assay: Cell proliferation assay (Alamar Blue), PanC1; type: cell-based; settings: Homo sapiens, PANC-1; PanC1 cell line
Method: as §1, §2, §3, §4, §5

recombinant human CK2 = target: T1, recombinant human CK2 (Homo sapiens, UniProt P68400); assay: Cell-free CK2 assay; type: biochemical; settings: for inhibition at 0.5 µM: read-out: CK2: % inh 500 nM
T1 construct: purchased Upstate
T1 sequence (P68400 whole entry): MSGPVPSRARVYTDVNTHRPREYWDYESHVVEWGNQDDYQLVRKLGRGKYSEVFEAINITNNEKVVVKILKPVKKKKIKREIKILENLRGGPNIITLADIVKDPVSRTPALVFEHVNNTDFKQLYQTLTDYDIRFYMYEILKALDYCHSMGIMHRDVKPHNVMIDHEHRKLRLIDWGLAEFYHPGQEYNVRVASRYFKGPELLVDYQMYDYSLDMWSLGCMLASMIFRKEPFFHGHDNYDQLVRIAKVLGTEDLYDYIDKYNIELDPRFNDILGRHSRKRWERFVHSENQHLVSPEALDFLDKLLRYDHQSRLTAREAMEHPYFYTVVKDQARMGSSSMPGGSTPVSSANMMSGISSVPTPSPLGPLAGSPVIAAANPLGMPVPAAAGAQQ
T1 sequence (P67870 whole entry partner): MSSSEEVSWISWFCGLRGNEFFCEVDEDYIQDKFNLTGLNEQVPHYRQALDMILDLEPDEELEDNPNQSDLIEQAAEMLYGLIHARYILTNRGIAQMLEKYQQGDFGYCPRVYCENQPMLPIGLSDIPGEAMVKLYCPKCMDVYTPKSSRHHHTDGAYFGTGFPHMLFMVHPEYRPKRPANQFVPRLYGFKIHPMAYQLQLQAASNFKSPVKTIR
Method: Modulatory activity of compounds described herein is assessed in vitro in cell-free CK2 assays. These assays are described hereafter.
Test compounds in aqueous solution are added at a volume of 10 microliters, to a reaction mixture comprising 10 microliters Assay Dilution Buffer (ADB; 20mM MOPS, pH 7.2, 25 mM beta-glycerolphosphate, 5 mM EGTA, 1 mM sodium orthovanadate and 1 mM dithiothreitol), 10 microliters of substrate peptide (RRRDDDSDDD (SEQ ID NO:4), dissolved in ADB at a concentration of 1 mM), 10 microliters of recombinant human CK2 (25 ng dissolved in ADB; Upstate). Reactions are initiated by the addition of 10 microliters of ATP Solution (90% 75 mM MgC12, 75 micromolar ATP dissolved in ADB; 10% [γ-^33P]ATP (stock 1 mCi/100 μl; 3000 Ci/mmol (Perkin Elmer) and maintained for 10 minutes at 30 degrees C. The reactions are quenched with 100 microliters of 0.75% phosphoric acid, then transferred to and filtered through a phosphocellulose filter plate (Millipore). After washing each well 5 times with 0.75% phosphoric acid, the plate is dried under vacuum for 5 min and, following the addition of 15 ul of scintillation fluid to each well, the residual radioactivity is measured using a Wallac […].

Jurkat = assay: Cell proliferation assay (Alamar Blue), Jurkat; type: cell-based; settings: Homo sapiens; Jurkat cell line
Method: as §1, §2, §3, §4, §5

BxPC3 = assay: Cell proliferation assay (Alamar Blue), BxPC3; type: cell-based; settings: Homo sapiens, BXPC-3; BxPC3 cell line; read-out: Bx-PC3
Method: as §1, §2, §3, §4, §5

[2] = system: MiaPaca human pancreatic carcinoma cells; assay: Cell proliferation assay (Alamar Blue), MiaPaCa; type: cell-based; settings: MIA PaCa-2, MiaPaCa cell line
Method: as §1, §2, §3, §4, §5

[3] = system: PC-3 human prostatic cancer cells; assay: Cell proliferation assay (Alamar Blue), PC3; type: cell-based; settings: PC3 cell line
Method: as §1, §2, §3, §4, §5

MV-4-11 = assay: Cell proliferation assay (Alamar Blue), MV-4-11; type: cell-based; settings: Homo sapiens, MV4-11; MV-4-11 cell line
Method: as §1, §2, §3, §4, §5

K562 = assay: Cell proliferation assay (Alamar Blue), K562; type: cell-based; settings: Homo sapiens; K562 cell line
Method: as §1, §2, §3, §4, §5

O=C(NC1CC1)c1ccc2c(c1)nc(-c1ccccc1)c1nc(NC3CC3)ncc12 [N-cyclopropyl-3-(cyclopropylamino)-5-phenylpyrimido[4,5-c]quinoline-8-carboxamide]
IC50 [1]: 0.8 µM | IC50 (MDA-MB231): > 62.5 µM | IC50 (PanC1): 30.2 µM | inhibition at 0.5 µM (recombinant human CK2): -4% | IC50 (Jurkat): 0.6 µM | IC50 (BxPC3): 1.2 µM | IC50 [2]: 58.4 µM

COC(=O)c1ccc2c(c1)nc(-c1ccccc1)c1nc(S(C)(=O)=O)ncc12 [methyl 3-(methylsulfonyl)-5-phenylpyrimido[4,5-c]quinoline-8-carboxylate]
IC50 [1]: 2.7 µM | IC50 (MDA-MB231): 6.4 µM | IC50 (PanC1): 9.8 µM | inhibition at 0.5 µM (recombinant human CK2): -18% | IC50 (Jurkat): 0.7 µM | IC50 (BxPC3): 10.6 µM | IC50 [2]: 5.5 µM

O=C(O)c1ccc2c(c1)nc(-c1ccccc1)c1nc(NC3CC3)ncc12 [3-(cyclopropylamino)-5-phenylpyrimido[4,5-c]quinoline-8-carboxylic acid]
IC50 [1]: 2.9 µM | IC50 (MDA-MB231): 11.1 µM | IC50 (PanC1): 15.9 µM | IC50 (recombinant human CK2): 0.093 µM | inhibition at 0.5 µM (recombinant human CK2): 99% | IC50 (Jurkat): 1.5 µM | IC50 (BxPC3): 4.5 µM | IC50 [2]: 3.7 µM

O=C(O)c1ccc2c(c1)nc(-c1cccc(F)c1)c1ccncc12
IC50 [3]: > 10 µM | IC50 [1]: > 10 µM | IC50 (MDA-MB231): 0.2 µM | IC50 (MV-4-11): 1.4 µM | IC50 (K562): > 10 µM | IC50 (recombinant human CK2): 0.029 µM | inhibition at 0.5 µM (recombinant human CK2): 98% | IC50 [2]: > 10 µM

O=C(O)c1ccc2c(c1)nc(-c1cccc(Cl)c1)c1ccncc12
IC50 [3]: > 10 µM | IC50 [1]: > 10 µM | IC50 (MDA-MB231): > 10 µM | IC50 (MV-4-11): > 10 µM | IC50 (K562): 0.9 µM | IC50 (recombinant human CK2): 0.03 µM | inhibition at 0.5 µM (recombinant human CK2): 95% | IC50 (BxPC3): > 10 µM | IC50 [2]: > 10 µM

COC(=O)c1ccc2c(c1)nc(-c1cnn(C)c1)c1nc(NC3CC3)ncc12
IC50 [1]: > 10 µM | IC50 (MDA-MB231): 17.2 µM | IC50 (PanC1): 1.4 µM | inhibition at 0.5 µM (recombinant human CK2): 10% | IC50 (Jurkat): > 30 µM | IC50 (BxPC3): > 30 µM | IC50 [2]: 0.6 µM

O=C(O)c1ccc2c(c1)nc(-c1ccsc1)c1ccncc12
IC50 [3]: > 10 µM | IC50 [1]: > 30 µM | IC50 (MDA-MB231): > 10 µM | IC50 (MV-4-11): 13.3 µM | IC50 (K562): 0.2 µM | IC50 (recombinant human CK2): 0.004 µM | inhibition at 0.5 µM (recombinant human CK2): 98% | IC50 (BxPC3): > 10 µM | IC50 [2]: > 10 µM

CN1CCCCC1CNC(=O)c1ccc2c(c1)nc(-c1cccc(N)c1)c1ccncc12 (stereo not shown)
IC50 [3]: > 10 µM | IC50 [1]: > 10 µM | IC50 (MV-4-11): > 10 µM | IC50 (K562): > 10 µM | inhibition at 0.5 µM (recombinant human CK2): 9% | IC50 [2]: > 10 µM

NC(=O)c1ccc2c(c1)nc(-c1ccccc1)c1nc(NC3CC3)ncc12
IC50 [1]: 1.1 µM | IC50 (MDA-MB231): 35.7 µM | IC50 (PanC1): 25.9 µM | inhibition at 0.5 µM (recombinant human CK2): 45% | IC50 (Jurkat): 0.5 µM | IC50 (BxPC3): 1.1 µM | IC50 [2]: 5.2 µM

Cn1cc(-c2nc3cc(C(=O)O)ccc3c3cnc(NC4CC4)nc23)cn1
IC50 [1]: > 10 µM | IC50 (MDA-MB231): > 30 µM | IC50 (MV-4-11): 0.6 µM | IC50 (K562): 0.6 µM | IC50 (PanC1): > 30 µM | IC50 (recombinant human CK2): 0.004 µM | inhibition at 0.5 µM (recombinant human CK2): 101% | IC50 (Jurkat): 3.6 µM | IC50 (BxPC3): 13.6 µM | IC50 [2]: 0.9 µM

Cn1cc(-c2nc3cc(C(=O)NC4CC4)ccc3c3cnc(NC4CC4)nc23)cn1
IC50 [1]: 4.3 µM | IC50 (MDA-MB231): > 30 µM | IC50 (PanC1): > 30 µM | inhibition at 0.5 µM (recombinant human CK2): 0% | IC50 (Jurkat): 1.6 µM | IC50 (BxPC3): 5.9 µM | IC50 [2]: 2.8 µM

COC(=O)c1ccc2c(c1)nc(-c1ccccc1)c1nc(NC3CC3)ncc12 [methyl 3-(cyclopropylamino)-5-phenylpyrimido[4,5-c]quinoline-8-carboxylate]
IC50 [1]: 2.6 µM | IC50 (MDA-MB231): 3.4 µM | IC50 (PanC1): 8.7 µM | inhibition at 0.5 µM (recombinant human CK2): -27% | IC50 (Jurkat): 1.1 µM | IC50 (BxPC3): 1.9 µM | IC50 [2]: 3.2 µM

O=C(O)c1ccc2c(c1)nc(-c1ccccc1F)c1ccncc12
IC50 [3]: 4.1 µM | IC50 [1]: > 10 µM | IC50 (MV-4-11): > 10 µM | IC50 (K562): > 10 µM | IC50 (recombinant human CK2): 0.106 µM | inhibition at 0.5 µM (recombinant human CK2): 97% | IC50 [2]: > 10 µM

COC(=O)c1ccc2c(c1)nc(-c1cnn(C)c1)c1nc(SC)ncc12 [Methyl 5-(1-methyl-1H-pyrazol-4-yl)-3-(methylthio)pyrimido[4,5-c]quinoline-8-carboxylate]
IC50 [1]: > 10 µM | IC50 (MDA-MB231): > 62.5 µM | IC50 (PanC1): > 62.5 µM | inhibition at 0.5 µM (recombinant human CK2): 68% | IC50 (Jurkat): 47.6 µM | IC50 (BxPC3): > 62.5 µM | IC50 [2]: > 62.5 µM

O=C(O)c1ccc2c(c1)nc(-c1ccc(Cl)cc1)c1ccncc12
IC50 [3]: > 10 µM | IC50 [1]: > 10 µM | IC50 (MDA-MB231): > 10 µM | IC50 (MV-4-11): > 10 µM | IC50 (K562): > 10 µM | IC50 (recombinant human CK2): 0.007 µM | inhibition at 0.5 µM (recombinant human CK2): 98% | IC50 (BxPC3): > 10 µM | IC50 [2]: > 10 µM
